Assay results reported in US12180207B2 (ARRAY BIOPHARMA INC., priority 2018, dated 2024).

Experiments:
[1] = target: FGFR1 (SEQ ID NO: 1, amino acids 458-765) (Homo sapiens (Human), UniProt P11362); assay: LC/MS FGFR1 kobs assay (covalent protein modification); format: binding; settings: 500 nM FGFR1, 3 μM compound
In short: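 Covalent labeling of FGFR1 kinase domain (aa 458-765) tracked over time by intact-protein LC/MS after formic acid quench. kobs derived by fitting DMSO-normalized percent unmodified FGFR1 to an exponential decay model.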

[2] = target: recombinant human FGFR3 (amino acids R397-T806) (Homo sapiens (Human), UniProt P22607); assay: FGFR3 enzyme activity assay (LanthaScreen TR-FRET); format: biochemical; settings: 25 μM ATP, 10 min incubation at 22° C., average of multiple determinations if made, read-out: FGFR3 Enz FRET IC50
Chain of recombinant human FGFR3 (amino acids R397-T806) (P22607 397-806): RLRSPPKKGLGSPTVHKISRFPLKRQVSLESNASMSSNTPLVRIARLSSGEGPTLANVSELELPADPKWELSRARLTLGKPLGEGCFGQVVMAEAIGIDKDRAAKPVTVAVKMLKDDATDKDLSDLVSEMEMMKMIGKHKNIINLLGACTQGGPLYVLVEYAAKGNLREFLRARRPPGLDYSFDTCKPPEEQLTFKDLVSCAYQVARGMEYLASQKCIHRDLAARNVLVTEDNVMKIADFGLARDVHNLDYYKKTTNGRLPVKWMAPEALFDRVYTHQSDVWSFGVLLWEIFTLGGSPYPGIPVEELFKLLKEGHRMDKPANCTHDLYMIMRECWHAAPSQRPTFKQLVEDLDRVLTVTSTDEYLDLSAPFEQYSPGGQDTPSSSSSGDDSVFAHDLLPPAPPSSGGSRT
In short: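 GST-HIS6-tagged human FGFR3 (R397-T806) was reacted with 100 nM Alexa Fluor 647-Poly-GT substrate and 25 μM ATP plus compound in HEPES/MgCl2/Triton buffer, pH 7.5, 2% DMSO, for 10 min at 22 °C.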

[3] = target: FGFR3 (SEQ ID NO: 5, amino acids 449-759) (Homo sapiens (Human), UniProt P22607); assay: LC/MS FGFR3 kobs assay (covalent protein modification); format: binding; settings: 500 nM FGFR3, 3 μM compound
Chain of FGFR3 (SEQ ID NO: 5, amino acids 449-759) (P22607 449-759): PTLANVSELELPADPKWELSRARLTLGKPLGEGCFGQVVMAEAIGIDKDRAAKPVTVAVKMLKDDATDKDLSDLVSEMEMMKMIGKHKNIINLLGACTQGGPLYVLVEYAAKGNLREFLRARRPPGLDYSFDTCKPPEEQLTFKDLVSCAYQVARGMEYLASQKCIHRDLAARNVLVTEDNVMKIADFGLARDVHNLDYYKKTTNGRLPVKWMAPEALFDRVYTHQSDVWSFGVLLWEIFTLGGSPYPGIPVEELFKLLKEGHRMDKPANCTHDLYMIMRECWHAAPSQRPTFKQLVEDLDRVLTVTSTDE
In short: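 Quench: 0.4% formic acid at each time point. Readout: intact-protein LC/MS (Q-TOF), deconvoluted masses. Analysis: % unmodified, normalized to DMSO controls, fit to exponential decay → kobs; mean of replicates where repeated.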

dephosphorylated FGFR2 = dephosphorylated FGFR2 (Homo sapiens (Human), UniProt P21802); assay: FGFR enzyme binding assay (HTRF tracer displacement), FGFR2; settings: 5 nM dephosphorylated FGFR2, average of multiple determinations if made
Chain of dephosphorylated FGFR2 (P21802 22-821): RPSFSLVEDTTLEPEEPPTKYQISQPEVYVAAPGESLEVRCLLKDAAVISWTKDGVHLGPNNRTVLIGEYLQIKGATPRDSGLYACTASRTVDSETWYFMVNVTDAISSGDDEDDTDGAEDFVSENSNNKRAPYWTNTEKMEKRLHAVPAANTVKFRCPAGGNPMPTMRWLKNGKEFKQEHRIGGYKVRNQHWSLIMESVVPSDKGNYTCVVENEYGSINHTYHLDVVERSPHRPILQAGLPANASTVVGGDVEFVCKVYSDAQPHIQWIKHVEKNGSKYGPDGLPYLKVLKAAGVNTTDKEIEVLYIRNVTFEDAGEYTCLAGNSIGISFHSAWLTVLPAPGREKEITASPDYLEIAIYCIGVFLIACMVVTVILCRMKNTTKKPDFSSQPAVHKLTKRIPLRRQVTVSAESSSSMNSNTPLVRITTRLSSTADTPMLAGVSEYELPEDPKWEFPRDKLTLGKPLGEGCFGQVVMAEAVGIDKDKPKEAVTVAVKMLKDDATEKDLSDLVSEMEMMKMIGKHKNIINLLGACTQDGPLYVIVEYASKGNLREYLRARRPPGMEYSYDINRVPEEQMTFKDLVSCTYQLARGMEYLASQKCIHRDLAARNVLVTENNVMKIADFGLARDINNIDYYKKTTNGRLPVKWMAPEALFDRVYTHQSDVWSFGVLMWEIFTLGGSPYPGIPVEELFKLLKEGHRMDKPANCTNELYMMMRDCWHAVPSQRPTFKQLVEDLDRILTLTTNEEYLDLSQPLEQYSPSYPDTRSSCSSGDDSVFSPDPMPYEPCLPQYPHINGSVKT
Experimental: The potency of compounds inhibiting human isoforms of FGFR kinase was determined using Life Technologies' Homogeneous Time Resolved Fluorescence (HTRF)-based binding assay technology. […] After a 60 minute incubation at 22° C., the extent of tracer displacement was determined using a PerkinElmer EnVision multimode plate reader via HTRF dual wavelength detection, and the percent of control (POC) was calculated using a ratiometric emission factor. One hundred POC was determined using no test compound, and 0 POC was determined in the presence of 1 μM of an appropriate control inhibitor.

[4] = target: recombinant human FGFR1 catalytic domain (amino acids 308-731) (Homo sapiens (Human), UniProt P11362); assay: FGFR1 enzyme activity assay (LanthaScreen TR-FRET); format: biochemical; settings: 20 min incubation at 22° C., average of multiple determinations if made, read-out: FGFR1 Enz FRET IC50
Chain of recombinant human FGFR1 catalytic domain (amino acids 308-731) (P11362 other isoform, or with tags, fused parts or gaps): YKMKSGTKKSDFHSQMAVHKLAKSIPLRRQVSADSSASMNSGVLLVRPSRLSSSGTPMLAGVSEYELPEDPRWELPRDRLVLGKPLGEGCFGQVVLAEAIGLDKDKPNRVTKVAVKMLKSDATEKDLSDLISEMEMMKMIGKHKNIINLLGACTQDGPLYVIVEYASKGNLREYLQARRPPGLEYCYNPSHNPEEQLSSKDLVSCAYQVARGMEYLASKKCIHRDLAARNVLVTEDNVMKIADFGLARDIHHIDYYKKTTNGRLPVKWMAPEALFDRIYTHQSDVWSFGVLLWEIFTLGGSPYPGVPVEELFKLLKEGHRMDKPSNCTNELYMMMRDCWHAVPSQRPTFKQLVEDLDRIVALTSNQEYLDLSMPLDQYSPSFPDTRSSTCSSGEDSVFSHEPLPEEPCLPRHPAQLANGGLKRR
In short: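 His-tagged FGFR1 kinase domain with 100 nM Alexa Fluor 647-poly-GT peptide and ATP in pH 7.5 HEPES/MgCl2 buffer with 2% DMSO, 20 min at 22 °C. Quenched with EDTA plus 2 nM Eu-PY20 antibody and read after 60 min. IC50 comes from a 4-parameter fit of percent of control.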

Chain of FGFR1 (SEQ ID NO: 1, amino acids 458-765) (P11362 458-765): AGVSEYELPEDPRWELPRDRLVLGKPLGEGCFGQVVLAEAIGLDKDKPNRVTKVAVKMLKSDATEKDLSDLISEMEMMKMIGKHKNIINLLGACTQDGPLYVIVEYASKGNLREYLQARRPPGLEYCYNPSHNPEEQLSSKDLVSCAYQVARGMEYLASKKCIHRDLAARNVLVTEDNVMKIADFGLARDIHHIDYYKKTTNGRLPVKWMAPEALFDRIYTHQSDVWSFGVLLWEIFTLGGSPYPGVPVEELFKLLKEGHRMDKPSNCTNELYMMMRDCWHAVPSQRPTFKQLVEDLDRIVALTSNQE

Compound | FGFR1 Enz kobs [1] [min⁻¹] | IC50 [2] [µM] | FGFR3 Enz kobs [3] [min⁻¹] | IC50 (dephosphorylated FGFR2) [µM] | IC50 [4] [µM]
C=CC(=O)N1CC(C(=O)N2CC3CC(C2)N3c2ccc(-c3cc(OC)c4c(C#N)cnn4c3)cn2)C1 [Example 105, 6-(6-(3-(1-acryloylazetidine-3-carbonyl)-3,6-diazabicyclo[3.1.1]heptan-6-yl)pyridin-3-yl)-4-methoxypyrazolo[1,5-a]pyridine-3-carbonitrile] | 0.00042 | 0.125 | 0.00147 | 0.226 | 0.193
C=CC(=O)N1CC(CN2CCC(n3ncc(-c4cc(OC)c5c(C#N)cnn5c4)c3C)CC2)C1(C)C (centres unmarked) [Example 151, 6-(1-(1-((1-acryloyl-2,2-dimethylazetidin-3-yl)methyl)piperidin-4-yl)-5-methyl-1H-pyrazol-4-yl)-4-methoxypyrazolo [1,5-a]pyridine-3-carbonitrile] | 0.0008 | 0.017 | 0.0082 | 0.038 | 0.086
COc1cc(-c2c(C)nn(C3CCN(C(=O)C4(F)CN(C(=O)/C=C/CN(C)C)C4)CC3)c2C)cn2ncc(C#N)c12 [Example 161, (E)-6-(1-(1-(1-(4-(dimethylamino)but-2-enoyl)-3-fluoroazetidine-3-carbonyl)piperidin-4-yl)-3,5-dimethyl-1H-pyrazol-4-yl)-4-methoxypyrazolo [1,5-a]pyridine-3-carbonitrile] | 0.00744 | 0.02 | 0.1129 | 0.044 | 0.154
COc1cc(-c2cnn(C3CCN(C(=O)C4(F)CN(C(=O)/C=C/CN(C)C)C4)CC3)c2C)cn2ncc(C#N)c12 [Example 153, (E)-6-(1-(1-(1-(4-(dimethylamino)but-2-enoyl)-3-fluoroazetidine-3-carbonyl)piperidin-4-yl)-5-methyl-1H-pyrazol-4-yl)-4-methoxypyrazolo [1,5-a]pyridine-3-carbonitrile] | 0.00975 | 0.005 | 0.1578 | 0.011 | 0.039
COc1cc(-c2cnn(C3CCN(CC4(OC)CN(C(=O)/C=C/CN(C)C)C4)CC3)c2C)cn2ncc(C#N)c12 [Example 159, (E)-6-(1-(1-((1-(4-(dimethylamino)but-2-enoyl)-3-methoxyazetidin-3-yl)methyl)piperidin-4-yl)-5-methyl-1H-pyrazol-4-yl)-4-methoxypyrazolo [1,5-a]pyridine-3-carbonitrile] | 0.00408 | 0.01 | 0.0605 | 0.024 | 0.07
C=CC(=O)N1CC(CN2CCC(n3ncc(-c4cc(OC)c5c(Cl)cnn5c4)c3C)CC2)C1(C)C (centres unmarked) [Example 120, 1-(3-((4-(4-(3-chloro-4-methoxypyrazolo[1,5-a]pyridin-6-yl)-5-methyl-1H-pyrazol-1-yl)piperidin-1-yl)methyl)-2,2-dimethylazetidin-1-yl)prop-2-en-1-one] | 0.00068 | 0.072 | 0.00758 | 0.084 | 0.338
COC/C=C/C(=O)N1CC(F)(C(=O)N2CCC(n3ncc(-c4cc(OC)c5c(C#N)cnn5c4)c3C)CC2)C1 [Example 154, (E)-6-(1-(1-(3-fluoro-1-(4-methoxybut-2-enoyl)azetidine-3-carbonyl)piperidin-4-yl)-5-methyl-1H-pyrazol-4-yl)-4-methoxypyrazolo [1,5-a]pyridine-3-carbonitrile] | 0.00081 | 0.019 | 0.00747 | 0.069 | 0.335
C=CC(=O)N1CC(O)(C(=O)N2CCC(n3ncc(-c4cc(OC)c5c(Cl)cnn5c4)c3C)CC2)C1 [Example 172, 1-(3-(4-(4-(3-chloro-4-methoxypyrazolo [1,5-a]pyridin-6-yl)-5-methyl-1H-pyrazol-1-yl)piperidine-1-carbonyl)-3-hydroxyazetidin-1-yl)prop-2-en-1-one] | 0.00191 | 0.101 | 0.02599 | 0.125 | 0.856
CCc1c(-c2cc(OC)c3c(C#N)cnn3c2)cnn1C1CCN(C(=O)C2(F)CN(C(=O)/C=C/CN(C)C)C2)CC1 [Example 162, (E)-6-(1-(1-(1-(4-(dimethylamino)but-2-enoyl)-3-fluoroazetidine-3-carbonyl)piperidin-4-yl)-5-ethyl-1H-pyrazol-4-yl)-4-methoxypyrazolo [1,5-a]pyridine-3-carbonitrile] | 0.00455 | 0.099 | 0.07862 | 0.462 | 0.311

More lines, now with the values ahead:

FGFR1 Enz kobs [1] [min⁻¹] | IC50 [2] [µM] | FGFR3 Enz kobs [3] [min⁻¹] | IC50 (dephosphorylated FGFR2) [µM] | IC50 [4] [µM] | Compound
0.00386 | 0.02 | 0.03006 | 0.045 | 0.063 | C=CC(=O)N1CC(C(=O)N2CC3(C2)CN(c2ccc(-c4cc(OC)c5c(C#N)cnn5c4)cn2)C3)C1 [Example 104, 6-(6-(6-(1-acryloylazetidine-3-carbonyl)-2,6-diazaspiro[3.3]heptan-2-yl)pyridin-3-yl)-4-methoxypyrazolo[1,5-a]pyridine-3-carbonitrile]
0.00369 | 0.009 | 0.06393 | 0.012 | 0.028 | C=CC(=O)N1CC(F)(C(=O)N2CCC(n3cc(-c4cc(OC)c5c(Cl)cnn5c4)cn3)CC2)C1 [Example 121, 1-(3-(4-(4-(3-chloro-4-methoxypyrazolo[1,5-a]pyridin-6-yl)-1H-pyrazol-1-yl)piperidine-1-carbonyl)-3-fluoroazetidin-1-yl)prop-2-en-1-one]
0.00338 | 0.016 | 0.03526 | 0.049 | 0.099 | COc1cc(-c2cnn(C3CCN(C(=O)C4CN(C(=O)/C=C/CN(C)C)C4)CC3)c2C)cn2ncc(C#N)c12 [Example 152, (E)-6-(1-(1-(1-(4-(dimethylamino)but-2-enoyl)azetidine-3-carbonyl)piperidin-4-yl)-5-methyl-1H-pyrazol-4-yl)-4-methoxypyrazolo [1,5-a]pyridine-3-carbonitrile]
0.0008 | 0.024 | 0.00585 | 0.026 | 0.375 | CC#CC(=O)N1CC(F)(C(=O)N2CCC(n3ncc(-c4cc(OC)c5c(C#N)cnn5c4)c3C)CC2)C1 [Example 156, 6-(1-(1-(1-(but-2-ynoyl)-3-fluoroazetidine-3-carbonyl)piperidin-4-yl)-5-methyl-1H-pyrazol-4-yl)-4-methoxypyrazolo [1,5-a]pyridine-3-carbonitrile]
0.00659 | 0.034 | 0.08254 | 0.033 | 0.248 | COc1cc(-c2cnn(C3CN(C(=O)C4(F)CN(C(=O)/C=C/CN(C)C)C4)C3)c2C)cn2ncc(C#N)c12 [Example 160, (E)-6-(1-(1-(1-(4-(dimethylamino)but-2-enoyl)-3-fluoroazetidine-3-carbonyl)azetidin-3-yl)-5-methyl-1H-pyrazol-4-yl)-4-methoxypyrazolo [1,5-a]pyridine-3-carbonitrile]
0.00246 | 0.025 | 0.01259 | 0.03 | 0.061 | C=CC(=O)N1CC(C(=O)N2C[C@@H]3C[C@H]2CN3c2ccc(-c3cc(OC)c4c(C#N)cnn4c3)cn2)C1 [Example 106, 6-(6-((1S,4S)-5-(1-acryloylazetidine-3-carbonyl)-2,5-diazabicyclo[2.2.1]heptan-2-yl)pyridin-3-yl)-4-methoxypyrazolo[1,5-a]pyridine-3-carbonitrile]
0.01248 | 0.003 | 0.189 | 0.006 | 0.015 | COc1cc(-c2cnn(C3CCN(C(=O)C4CN(C(=O)C#CCO)C4)CC3)c2)cn2ncc(C#N)c12 [Example 179, 6-(1-(1-(1-(4-hydroxybut-2-ynoyl)azetidine-3-carbonyl)piperidin-4-yl)-1H-pyrazol-4-yl)-4-methoxypyrazolo[1,5-a]pyridine-3-carbonitrile]
